Experimental data from US11414431B2, “Substituted pyrazolo[1,5-a]pyrimidines as TYK2 inhibitors” (Nimbus Lakshmi, Inc., priority 2018, dated 2022).

Test system: IL-12 induced STAT4 phosphorlyation mediated by TYK2/JAK2
Test: IL-12 Induced pSTAT4 in Human PBMC
Assay type: cell-based
Settings: 1.7 ng/mL IL-12 for 30 minutes
Method: Human PBMC were isolated from buffy coat and are stored frozen for assays as needed. […] 15 μL of compound or DMSO was added to the well at the desired concentrations and incubated at 1 hr at 37° C. 15 μL of stimulus (final concentration of 1.7 ng/mL IL-12) was added for 30 minutes prior to pSTAT4 and total STAT4 analysis using cell lysates prepared and analyzed by MSD reagents as per manufacturer protocol. The final DMSO concentration of compound in the assay was 0.1%.
The IL-12 induced pSTAT4 assay evaluates the inhibition of IL-12 induced STAT4 phosphorlyation mediated by TYK2/JAK2 (heterpdimeric complex).

Row | Structure (SMILES) | IC50 [µM]
1 | CNc1cc(Nc2cccn([C@H]3C[C@@H]3F)c2=O)nc2c(C(=O)NC3CCC3(F)F)cnn12 (some centres unmarked) [Compound I-277] | < 0.1
2 | CNc1cc(Nc2cccn([C@H]3C[C@@H]3F)c2=O)nc2c(C(=O)N[C@@H]3CCC3(F)F)cnn12 [Compound I-279] | < 0.1
3 | CNc1cc(Nc2cccn(C3COC3)c2=O)nc2c(C(=O)NC3CCC3(F)F)cnn12 (centres unmarked) [Compound I-280] | < 0.1
4 | CNc1cc(Nc2cccn(C3COC3)c2=O)nc2c(C(=O)N[C@@H]3CCC3(F)F)cnn12 [Compound I-282] | < 0.1
5 | CNc1cc(Nc2cccn([C@H]3C[C@H](F)C3)c2=O)nc2c(C(=O)NC3CCC3(F)F)cnn12 (some centres unmarked) [Compound I-283] | < 0.1
6 | CNc1cc(Nc2cccn([C@H]3C[C@H](F)C3)c2=O)nc2c(C(=O)N[C@@H]3CCC3(F)F)cnn12 [Compound I-285] | < 0.1
7 | CNc1cc(Nc2cccn([C@H]3CC[C@H]3O)c2=O)nc2c(C(=O)NC3CCC3(F)F)cnn12 (some centres unmarked) [Compound I-286] | < 0.1
8 | CNc1cc(Nc2cccn([C@H]3CC[C@H]3O)c2=O)nc2c(C(=O)N[C@H]3CCC3(F)F)cnn12 [Compound I-287] | < 0.1
9 | CNc1cc(Nc2cccn([C@@H]3CC[C@@H]3O)c2=O)nc2c(C(=O)N[C@H]3CCC3(F)F)cnn12 [Compound I-290] | < 0.1
10 | CNc1cc(Nc2cccn([C@H]3C[C@H](OC)C3)c2=O)nc2c(C(=O)NC3CCC3(F)F)cnn12 (some centres unmarked) [Compound I-292] | < 0.1
11 | CNc1cc(Nc2cccn([C@H]3C[C@H](OC)C3)c2=O)nc2c(C(=O)N[C@H]3CCC3(F)F)cnn12 [Compound I-293] | < 0.1
12 | CNc1cc(Nc2cccn([C@H]3C[C@@H](OC)C3)c2=O)nc2c(C(=O)NC3CCC3(F)F)cnn12 (some centres unmarked) [Compound I-295] | < 0.1
13 | CNc1cc(Nc2cccn([C@H]3C[C@@H](OC)C3)c2=O)nc2c(C(=O)N[C@H]3CCC3(F)F)cnn12 [Compound I-296] | < 0.1
14 | CNc1cc(Nc2cccn([C@@H]3CCC[C@@H]3O)c2=O)nc2c(C(=O)NC3CCC3(F)F)cnn12 (some centres unmarked) [Compound I-303] | < 0.1
15 | CNc1cc(Nc2cccn([C@@H]3CCC[C@@H]3O)c2=O)nc2c(C(=O)N[C@@H]3CCC3(F)F)cnn12 [Compound I-305] | < 0.1
16 | CNc1cc(Nc2cccn([C@H]3[C@@H]4COC[C@@H]43)c2=O)nc2c(C(=O)NC3CCC3(F)F)cnn12 (some centres unmarked) [Compound I-306] | < 0.1
17 | CNc1cc(Nc2cccn(C3CCOCC3)c2=O)nc2c(C(=O)NC3CCC3(F)F)cnn12 (centres unmarked) [Compound I-309] | < 0.1
18 | CNc1cc(Nc2cccn(C3CCOCC3)c2=O)nc2c(C(=O)N[C@@H]3CCC3(F)F)cnn12 [Compound I-311] | < 0.1
19 | CNc1cc(Nc2cccn([C@H]3CCCOC3)c2=O)nc2c(C(=O)NC3CCC3(F)F)cnn12 (some centres unmarked) [Compound I-312] | < 0.1
20 | CNc1cc(Nc2cccn([C@H]3CCCOC3)c2=O)nc2c(C(=O)N[C@@H]3CCC3(F)F)cnn12 [Compound I-314] | < 0.1
21 | CNc1cc(Nc2cccn([C@@H]3CCCOC3)c2=O)nc2c(C(=O)NC3CCC3(F)F)cnn12 (some centres unmarked) [Compound I-315] | < 0.1
22 | CNc1cc(Nc2cccn([C@@H]3CCCOC3)c2=O)nc2c(C(=O)N[C@@H]3CCC3(F)F)cnn12 [Compound I-317] | < 0.1

Row | Structure (SMILES) | IC50 [µM]
23 | CNc1cc(Nc2cccn(-c3ccccn3)c2=O)nc2c(C(=O)NC3CCC3(F)F)cnn12 (centres unmarked) [Compound I-318] | < 0.1
24 | CNc1cc(Nc2cccn(-c3ccccn3)c2=O)nc2c(C(=O)N[C@@H]3CCC3(F)F)cnn12 [Compound I-320] | < 0.1
25 | CNc1cc(Nc2cccn(-c3ccc(C)nc3)c2=O)nc2c(C(=O)NC3CCC3(F)F)cnn12 (centres unmarked) [Compound I-324] | < 0.1
26 | CNc1cc(Nc2cccn(-c3ccc(C)nc3)c2=O)nc2c(C(=O)N[C@H]3CCC3(F)F)cnn12 [Compound I-325] | < 0.1
27 | CNc1cc(Nc2cccn([C@@H]3CCC[C@H](C#N)C3)c2=O)nc2c(C(=O)NC3CCC3(F)F)cnn12 (some centres unmarked) [Compound I-327] | < 0.1
28 | CNc1cc(Nc2cccn([C@@H]3CCC[C@H](C#N)C3)c2=O)nc2c(C(=O)N[C@H]3CCC3(F)F)cnn12 [Compound I-328] | < 0.1
29 | CNc1cc(Nc2cccn([C@H]3CCC[C@@H](C#N)C3)c2=O)nc2c(C(=O)NC3CCC3(F)F)cnn12 (some centres unmarked) [Compound I-330] | < 0.1
30 | CNc1cc(Nc2cccn([C@H]3CCC[C@@H](C#N)C3)c2=O)nc2c(C(=O)N[C@H]3CCC3(F)F)cnn12 [Compound I-331] | < 0.1
31 | CNc1cc(Nc2cccn([C@@H]3CCOC[C@@H]3OC)c2=O)nc2c(C(=O)NC3CCC3(F)F)cnn12 (some centres unmarked) [Compound I-336] | < 0.1
32 | CNc1cc(Nc2cccn([C@@H]3CCOC[C@@H]3OC)c2=O)nc2c(C(=O)N[C@@H]3CCC3(F)F)cnn12 [Compound I-338] | < 0.1
33 | CNc1cc(Nc2cccn(C(C)C)c2=O)nc2c(C(=O)NC3CC[C@]3(C)O)cnn12 (some centres unmarked) [Compound I-339] | < 0.1
34 | CNc1cc(Nc2cccn(C3CCOCC3)c2=O)nc2c(C(=O)NC3CC[C@]3(C)O)cnn12 (some centres unmarked) [Compound I-348] | < 0.1
35 | CNc1cc(Nc2cccn(C3CCOCC3)c2=O)nc2c(C(=O)N[C@H]3CC[C@]3(C)O)cnn12 [Compound I-349] | < 0.1
36 | CNc1cc(Nc2cccn([C@H]3CC[C@@H]3O)c2=O)nc2c(C(=O)N[C@@H]3CC[C@@]3(C)OC)cnn12 [Compound I-377] | < 0.1
37 | CNc1cc(Nc2cccn([C@H]3CCC[C@H]3O)c2=O)nc2c(C(=O)NC3CC[C@]3(C)OC)cnn12 (some centres unmarked) [Compound I-390] | < 0.1
38 | CNc1cc(Nc2cccn([C@H]3CCC[C@H]3O)c2=O)nc2c(C(=O)N[C@H]3CC[C@]3(C)OC)cnn12 [Compound I-391] | < 0.1
39 | CNc1cc(Nc2cccn(C3CCOCC3)c2=O)nc2c(C(=O)NC3CC[C@@]3(C)OC)cnn12 (some centres unmarked) [Compound I-405] | < 0.1
40 | CNc1cc(Nc2cccn(C3CCOCC3)c2=O)nc2c(C(=O)N[C@H]3CC[C@]3(C)OC)cnn12 [Compound I-407] | < 0.1
41 | CNc1cc(Nc2cccn([C@H]3[C@@H]4COC[C@@H]43)c2=O)nc2c(C(=O)N[C@@H]3CC[C@@]3(C)OC)cnn12 [Compound I-410] | < 0.1
42 | CNc1cc(Nc2cccn(-c3ncccc3F)c2=O)nc2c(C(=O)NC3CC[C@@]3(C)OC)cnn12 (some centres unmarked) [Compound I-414] | < 0.1
43 | CNc1cc(Nc2cccn(-c3ncccc3F)c2=O)nc2c(C(=O)N[C@@H]3CC[C@@]3(C)OC)cnn12 [Compound I-415] | < 0.1
44 | CNc1cc(Nc2cccn([C@H]3CCCC[C@H]3O)c2=O)nc2c(C(=O)NC3CC[C@]3(C)OC)cnn12 (some centres unmarked) [Compound I-423] | < 0.1

Row | Structure (SMILES) | IC50 [µM]
45 | CNc1cc(Nc2cccn([C@H]3CCCC[C@H]3O)c2=O)nc2c(C(=O)N[C@H]3CC[C@]3(C)OC)cnn12 [Compound I-424] | < 0.1
46 | CNc1cc(Nc2cccn([C@H]3CC[C@H](OC)CC3)c2=O)nc2c(C(=O)N[C@@H]3CC[C@@]3(C)OC)cnn12 [Compound I-428] | < 0.1
47 | CNc1cc(Nc2cccn([C@H]3CC[C@@H](OC)CC3)c2=O)nc2c(C(=O)N[C@@H]3CC[C@@]3(C)OC)cnn12 [Compound I-431] | < 0.1
48 | CNc1cc(Nc2cccn([C@H]3C[C@H](F)C3)c2=O)nc2c(C(=O)N[C@H]3CC[C@H](O)C3)cnn12 [Compound I-436] | < 0.1
49 | CNc1ccc(-c2cc(NC)n3ncc(C(=O)N[C@H]4CC[C@@H]4F)c3n2)n2ccnc12 [Compound I-481] | < 0.1
50 | CNc1ccc(-c2cc(NC)n3ncc(C(=O)NC4CC[C@H]4F)c3n2)n2ccnc12 (some centres unmarked) [Compound I-483] | < 0.1
51 | CNc1ccc(-c2cc(NC)n3ncc(C(=O)NC4CC[C@H]4O)c3n2)n2ccnc12 (some centres unmarked) [Compound I-484] | < 0.1
52 | CNc1ccc(-c2cc(NC)n3ncc(C(=O)N[C@H]4CC[C@H]4O)c3n2)n2ccnc12 [Compound I-485] | < 0.1
53 | CNc1cc(-c2cn([C@H]3C[C@@H](O)C3)c3ncccc23)nc2c(C(=O)NC3CC[C@@H]3F)cnn12 (some centres unmarked) [Compound I-510] | < 0.1
54 | CNc1cc(-c2cn([C@H]3C[C@@H](O)C3)c3ncccc23)nc2c(C(=O)N[C@H]3CC[C@@H]3F)cnn12 [Compound I-511] | < 0.1
55 | CNc1cc(-c2cn(C3CN(C)C3)c3ncccc23)nc2c(C(=O)NC3CC[C@@H]3F)cnn12 (some centres unmarked) [Compound I-513] | < 0.1
56 | CNc1cc(-c2cn(C3CN(C)C3)c3ncccc23)nc2c(C(=O)N[C@H]3CC[C@@H]3F)cnn12 [Compound I-514] | < 0.1
57 | CNc1cc(-c2cn([C@H]3COC[C@@H]3OC)c3ncccc23)nc2c(C(=O)N[C@H]3CC[C@@H]3F)cnn12 [Compound I-523] | < 0.1
58 | CNc1cc(-c2cn([C@H]3COC[C@@H]3OC)c3ncccc23)nc2c(C(=O)NC3CC[C@H]3F)cnn12 (some centres unmarked) [Compound I-528] | < 0.1
59 | CNc1cc(-c2cn([C@H]3COC[C@@H]3OC)c3ncccc23)nc2c(C(=O)N[C@H]3CC[C@H]3F)cnn12 [Compound I-529] | < 0.1
60 | CNc1cc(-c2cn([C@H]3COC[C@@H]3OC)c3ncccc23)nc2c(C(=O)N[C@@H]3CC[C@@H]3F)cnn12 [Compound I-530] | < 0.1
61 | CNc1cc(-c2cn([C@@H]3COC[C@H]3OC)c3ncccc23)nc2c(C(=O)NC3CC[C@H]3F)cnn12 (some centres unmarked) [Compound I-531] | < 0.1
62 | CNc1cc(-c2cn([C@@H]3CCOC[C@H]3O)c3ncccc23)nc2c(C(=O)N[C@H]3CC[C@@H]3F)cnn12 [Compound I-538] | < 0.1
63 | CNc1cc(-c2cn([C@H]3CCOC[C@H]3OC)c3ncccc23)nc2c(C(=O)NC3CC[C@@H]3F)cnn12 (some centres unmarked) [Compound I-546] | < 0.1
64 | CNc1cc(-c2cn([C@@H]3CC3(F)F)c3ncccc23)nc2c(C(=O)NC3CC[C@H]3O)cnn12 (some centres unmarked) [Compound I-548] | < 0.1
65 | CNc1cc(-c2cn([C@@H]3CC3(F)F)c3ncccc23)nc2c(C(=O)N[C@H]3CC[C@H]3O)cnn12 [Compound I-549] | < 0.1
